# Reference: patent EP4257135A1, “BENZIMIDAZOLE DERIVATIVES FOR PULMONARY ARTERIAL HYPERTENSION” (Justus-Liebig-Universität Gießen, priority 2022, dated 2023)
# System: FHR-PAH
# Test: Fawn-hooded hypertensive rat model of established PAH, right heart catheterisation and histology
# Assay type: in vivo, Ratten
# Settings: FHR-PAH rats, three times weekly for two weeks
# Text: Um das therapeutische Potenzial der EP300/CREBBP-Hemmung in vivo weiter zu erforschen, haben die Erfinder Versuchstiere in drei verschiedenen Nagetiermodellen mit etablierter PAH mit der Substanz SGC-CBP30 behandelt, wobei SGC-CBP30 durch intra-tracheale Vernebelung über zwei Wochen lang dreimal wöchentlich verabreicht wurde. Es wurden folgende drei verschiedenen Nagetiermodelle für eine PAH (FHR-PAH, MCT-PAH und SuHx-PAH) getestet: • Fawn-hooded hypertensive Ratten (FHR): Das ist ein genetischer Rattenstamm, bei dem PAH im Alter spontan auftritt und der ähnliche PAH-Anomalien aufweist, wie sie bei IPAH bei Menschen nach 40 Wochen auftreten. • Durch Monocrotalin (MCT) induziertes PAH-Rattenmodell. • Ein SUGEN5416/chronische Hypoxie (SuHx)-Rattenmodell für PAH, bei dem die Ratten eine einmalige Injektion von SUGEN5416 erhielten und anschließend einer chronischen Hypoxie (10% O2) ausgesetzt wurden (SuHx-PAH).
# Für die MCT-PAH wurden männlichen und weiblichen SD-Ratten (Sprague-Dawley-Ratten) subkutan 60 mg/kg MCT (Sigma, Katalog: C2401) injiziert, um PAH zu induzieren. Bei der SuHx-PAH erhielten SD-Ratten eine einmalige subkutane Injektion von SUGEN5416 (20 mg/kg) und wurden drei Wochen lang einer normobaren Hypoxie ausgesetzt, bevor sie für zwei Wochen an die Raumluft zurückkehrten. Zwei Wochen nach der MCT-Injektion bzw. drei Wochen nach der SUGEN5416-Injektion (sobald PAH festgestellt wurde) wurden die Ratten nach dem Zufallsprinzip in vier Gruppen eingeteilt und erhielten zwei Wochen lang dreimal wöchentlich entweder Vehikel (Verabreichung von 1 % Methylcellulose in destilliertem Wasser oder intratracheale Vernebelung von 4 % DMSO in PBS als Negativkontrolle), SGC-CBP30 (Verabreichung von 10 mg/kg in 1 % Methylcellulose + destilliertem Wasser) oder SGC-CBP30 (intratracheale Vernebelung von 275 nmol/kg in 4 % DMSO + PBS). Einjährige männliche und weibliche FHR-Ratten mit etablierter PAH wurden in dieselben vier Gruppen wie beim MCT-Modell eingeteilt und den selben Behandlungsmethoden unterzogen. Für die Vernebelung wurden die Ratten mit 3%igem Isofluran betäubt. Ein 16-Gauge-Katheter wurde in die Luftröhre eingeführt. Ein Vernebler (Aerogen) wurde an den Katheter angeschlossen, und für jede Behandlung wurde ein Volumen von 50 µl SGC-CBP30 oder dessen Vehikel (als Negativkontrolle) verabreicht. Nach zweiwöchiger Behandlung wurde eine Rechtsherzkatheteruntersuchung bei geschlossenem Thorax durchgeführt, um folgende hämodynamischen Daten zu erfassen: Systolischer Rechtsventrikulärer Druck (RVSP), mittlerer PA-Druck (mPAP), Herzzeitvolumen (CO) und Schlagvolumen (SV). Der Gesamtwiderstand der Lunge (TPR) wurde durch Division von mPAP durch CO ermittelt. Nach der hämodynamischen Messung wurden den Ratten Gewebeproben entnommen. Die Experimente wurden gemäß den Richtlinien des Canadian Council on Animal Care durchgeführt. Alle Protokolle wurden von der institutionellen Ethikkommission für Tiere (Tierschutzausschuss der Universität Laval) geprüft und genehmigt (Protokollnummer 2019-018-2). Alle Experimente folgten den Richtlinien für die präklinische Forschung bei PAH.
# Der schwarze Balken zeigt 50 µm an. Die Daten sind als Mittelwert ± SD angegeben und die statistische Analyse wurde mit einem ungepaarten Student's t-Test durchgeführt. FHR, MCT und SU5416/chronische Hypoxie-Ratten: *P<0,05, **P<0,01 und ***P<0,001 gegenüber den mit Vehikel behandelten Gruppen. MCT-Rattenmodell: §P<0,05, §§P<0,01 und §§§P<0,001 gegenüber der unbehandelten Kontrollgruppe. • A: Schematische Darstellung des Versuchsaufbaus für die Behandlung von Fawn-hooded hypertensive Ratten (FHR) mit dem EP300/CREBBP-Inhibitor SGC-CBP30, der selektiv auf die Acetyltransferase EP300/CREBBP wirkt. […]
# [1] = intratracheal nebulisation 275 nmol/kg, vs vehicle
compound,measurement,setting,value
"COc1ccc(CCc2nc3cc(-c4c(C)noc4C)ccc3n2C[C@H](C)N2CCOCC2)cc1Cl [SGC-CBP30, 2-[2-(3-Chloro-4-methoxyphenyl)ethyl]-5-(3,5-dimethyl-1,2-oxazol-4-yl)-1-[(S)-2-(morpholin-4-yl)propyl]-1H-benzimidazole]",molekulare Marker für Myokardhypertrophie,,signifikant abgeschwächt
same,mediale Wanddicke der distalen PAs,intratracheal nebulisation 275 nmol/kg,signifikant verringert
same,TPR,"intratracheal nebulisation 275 nmol/kg, mPAP divided by CO",signifikanten Senkung
same,CO,[1],verbesserten sich nach der Behandlung mit der Substanz SGC-CBP30 bei FHR-PAH und MCT-PAH signifikant
same,RVSP,[1],signifikanten Senkung
same,SV,[1],verbesserten sich nach der Behandlung mit der Substanz SGC-CBP30 bei FHR-PAH und MCT-PAH signifikant
same,mPAP,[1],signifikanten Senkung
